Test results taken from patent US10752591B2, “18-20 member bi-polycyclic compounds” (Haro Pharmaceutical Inc., priority 2014, dated 2020).

What was measured:
[1] = biological target: purified recombinant human HDAC-1 (Homo sapiens, UniProt Q13547); assay: HDAC-1 enzymatic inhibition (AMC fluorogenic peptide deacetylation); type: biochemical; details: up to
Protocol: (§1) The effect of compounds on the enzymatic activity of purified recombinant human HDAC-1, -2, -3, -6, and -8 activity and of purified rat liver HDAC was examined by measuring the deacetylation of synthetic peptides in various preparations of HDACs. HDAC assays were performed using a two-step enzymatic reaction where enzyme activity is correlated to the release of […] (AMC). AMC fluorescence is measured in a fluorescent plate reading using λex380 nm and λen440 nm.
(§2) The reaction was allowed to proceed for 40 min at 37° C., after which developer solution (0.5% trypsin, 10 μM trichostatin A (TSA)) was added to obtain a final concentration of 0.1% trypsin, 2 μM TSA. After 30 minutes at room temperature, the amount of free fluorogenic AMC was measured as described above.

[2] = biological target: T1, purified recombinant human HDAC-8 (Homo sapiens, UniProt Q9BY41); assay: HDAC-8 enzymatic inhibition (Boc-Lys(Tfa)-AMC / HDAC-Glo I/II); type: biochemical; details: relative to compound 17
T1 construct: purchased Cayman Chem 10009465 (AMC assay (so in the source)); 19380 (HDAC-Glo assay)
T1 sequence (Q9BY41 1-377): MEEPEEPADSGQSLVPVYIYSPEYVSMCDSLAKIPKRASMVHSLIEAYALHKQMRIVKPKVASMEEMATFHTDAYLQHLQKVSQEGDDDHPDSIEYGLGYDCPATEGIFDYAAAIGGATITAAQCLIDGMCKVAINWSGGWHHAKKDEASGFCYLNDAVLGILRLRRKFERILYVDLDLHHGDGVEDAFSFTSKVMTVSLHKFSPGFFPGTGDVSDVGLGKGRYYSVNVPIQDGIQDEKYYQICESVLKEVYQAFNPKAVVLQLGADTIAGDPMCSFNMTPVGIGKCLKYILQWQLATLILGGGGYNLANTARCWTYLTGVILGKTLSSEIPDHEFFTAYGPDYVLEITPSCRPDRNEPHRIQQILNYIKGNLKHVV
Protocol: as §1
HDAC-8, HDAC-9, HDAC-10 and HDAC-11 were assayed using HDAC-Glo™ I/II Kit (Promega Corporation G6421) in a total volume of 110 μl following the manufacturer's instructions.
as §2

purified rat liver HDAC = purified rat liver HDAC inhibition; type: biochemical; details: relative to compound 17
Protocol: as §1, §2

RAR = assay: RAR-mediated transcription, RARE-tk luciferase reporter in MCF7 cells; type: cell-based
Text: The effect of various compounds of the invention on RAR-mediated transcription in MCF7 breast cancer cells was examined by measuring their effect on the transcription of a luciferase reporter gene under the control of a TK promoter placed downstream of a RAR response element. In addition, the effect of the compounds on the closely related RXR-mediated transcription was examined by measuring their effect on the transcription of a luciferase reporter gene under the control of a TK promoter placed downstream of a RXR response element.
Typically, 10,000 cells were plated in 96 wells plates in phenol red-free RPMI medium supplemented with 10% charcoal-stripped Fetal Bovine Serum. After 24 hours, cells were transfected with 0.1 μg of luciferase reporter plasmid and 0.01 μg of a reporter plasmid expressing renilla luciferase (RLuc) gene under the control of a SV40 promoter, using Fugene 6 transfection reagent (0.5 μl/well Promega Corporation). Cells were treated in triplicate with compounds or vehicle (DMSO) for 24 hours. Luciferase and renilla luciferase activities were measured using Dual-Glo reagent (Promega Corporation). Luciferase activity was normalized in each well for renilla activity.

[3] = test system: BE-2C neuroblastoma cells; assay: cytotoxicity, cell survival (CellTiterGlo) in BE-2C; type: cell-based; details: BE-2C cells
Protocol: (§3) The cytotoxicity of compounds was examined and directly compared to compound 17, by measuring cell survival of clonal tumor cell lines IMR-32, BE2C (neuroblastoma), as well as MDA-MB-231, BT20, HCC-38 (Basal) and MCF7 (luminal) breast cancer cells (ATCC). Cells were cultured in phenol red-free RPMI medium supplemented with 10% FBS and 1 mM Ala-Glu. Typically, 10,000-20,000 cells/well were plated in a 96 well plate (Costar 3197). Cells were exposed to compounds or vehicle (1% DMSO final). Cells were maintained in the presence of compound for four or five days. Media and compounds were renewed every 48 hours. Cell survival was measured using the luminescence CellTiterGlo kit (Promega Corporation) and expressed as relative light unit as fold over DMSO.

[4] = test system: MDA-MB-231 breast cancer cells; assay: cytotoxicity, cell survival (CellTiterGlo) in MDA-MB-231; type: cell-based; details: MDA-MB-231 cells
Protocol: as §3

C2Cl2 myoblasts = assay: myotube fusion and degeneration in differentiated C2Cl2 cells left in exhausted media; type: cell-based; details: 200 nM pre-treatment
Protocol: C2Cl2 myoblasts were seeded at 100,000 in 30 mm plate in growth medium (Phenol red-free RMPI containing 10% FBS, Sodium pyruvate and Ala-Glu), and “pre-treated” with DMSO or 200 nM of compounds 13 or 17. At confluence cells were shifted to differentiation media (high glucose DMEM, +0.2% HS+1× Insulin/Transferrin/Selenium (Life Tech 41400-045)+Glutamine, without Pyruvate). Fully differentiated C2Cl2-derived myotubes were left in culture without media renewal for 8 days followed by media renewal and microscopic examination.

C2Cl2 cells = assay: Q-RT PCR of myofiber-degradation associated genes in long term C2Cl2 cultures; type: cell-based; details: day 10, normalized for RPLP0
Protocol: Quantitative RT-PCR was performed on RNA prepared from cell treated as in Example 9. At day 10 of the experiment, cells were rinsed in HBSS (without calcium or magnesium) and RNA was prepared using FastLane Cell cDNA Kit (Qiagen). Quantitative PCR was performed using Eppendorf and SYBR amplification mix (Sigma-Aldrich) using the gene specific primer combination given in Table 3. Data were normalized for ribosomal housekeeping gene RPLP0

mouse pharmacokinetics = type: in vivo; details: mice
Protocol: Mouse pharmacokinetics studies were conducted in female athymic nude or male C57/B6 mice (n=3). Due to its very poor aqueous solubility, compound 17 was formulated in 66% PEG-400/33% H2O-1% Tween-80. In contrast compound 13 was formulated in 66% PEG-400/33% H2O. Compounds were administered PO (30 mg/kg) or IV (5 mg/kg), and plasma concentrations were measured by UV/HPLC.

aqueous solubility = type: physicochemical
[5] = PO (30 mg/kg) or IV (5 mg/kg), route per parameter not stated

Sequence of purified recombinant human HDAC-1 (Q13547 whole entry): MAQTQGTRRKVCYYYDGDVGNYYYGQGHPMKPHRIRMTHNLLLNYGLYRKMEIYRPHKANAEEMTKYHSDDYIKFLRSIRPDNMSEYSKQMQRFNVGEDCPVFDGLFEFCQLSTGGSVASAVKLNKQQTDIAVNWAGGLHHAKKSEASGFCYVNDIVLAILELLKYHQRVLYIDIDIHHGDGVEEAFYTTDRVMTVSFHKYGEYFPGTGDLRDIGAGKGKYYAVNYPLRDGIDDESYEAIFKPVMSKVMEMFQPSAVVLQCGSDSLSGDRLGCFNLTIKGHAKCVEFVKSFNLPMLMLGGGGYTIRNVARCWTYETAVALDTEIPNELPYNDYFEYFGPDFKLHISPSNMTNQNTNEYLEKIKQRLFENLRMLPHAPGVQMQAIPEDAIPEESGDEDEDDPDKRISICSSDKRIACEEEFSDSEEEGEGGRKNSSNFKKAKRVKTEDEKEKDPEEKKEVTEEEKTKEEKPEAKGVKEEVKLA

CC1(C)CCC(C)(C)c2cc(-c3cc4cc(C(=O)NO)ccc4[nH]3)ccc21 [Compound 13]
maximal inhibition of HDAC-1 activity [1]: ~50% | times/fold more potent than compound 17 in HDAC-8 inhibition [2]: at least 13 | times more potent than compound 17 in inhibition of purified rat hepatic HDAC (purified rat liver HDAC): seventy | RARE-dependent luciferase expression (RAR): activated | times more potent than compound 17 in activating RARE-tk_luc reporter (RAR; relative to compound 17): five to ten | cytotoxic potency compared with compound 17, SAHA, Ricolinistat [3]: more potent than compound 17, SAHA or Ricolinistat | cytotoxic potency compared with compound 17, SAHA, Ricolinistat [4]: more potent than compound 17, SAHA or Ricolinistat | cellular fusion after 72 hours differentiation versus DMSO (C2Cl2 myoblasts): extensive cellular fusion | myotube structural atrophy in exhausted media for over 8 days (C2Cl2 myoblasts): very little structural alteration | expression of Atrogin (C2Cl2 cells): downregulates | expression of myogenin (C2Cl2 cells): downregulates | T max compared with compound 17 (mouse pharmacokinetics): markedly reduced | oral bioavailability, AUC, Cmax compared with compound 17 (mouse pharmacokinetics): markedly higher | AUC0-∞ (mouse pharmacokinetics; [5]): 42.00 µM·h | CLp (mouse pharmacokinetics; [5]): 0.24 mL/min/kg | Cmax (mouse pharmacokinetics; [5]): 5.54 µM | MRT (mouse pharmacokinetics; [5]): 6.9 h | Tmax (mouse pharmacokinetics; [5]): 1.4 h | Vd,ss (mouse pharmacokinetics; [5]): 8 L/kg | aqueous solubility (aqueous solubility): improved
